The record followed here is patent US20220177538A1, “CO-AGONISTS AT GLP-1 AND GIP RECEPTORS SUITABLE FOR ORAL DELIVERY” (Novo Nordisk A/S, priority 2020, published 2022).

Where two headings read alike, the source gives them in different places. Marks after values point to notes of the source that are not given here. Starred links: 1 amine or outer side, 2 acyl side, 3 side chain; linkers in the order of their positions; H or OH if unused. Non-standard residues stand in square brackets, D forms with d. Residues, ends and D or L forms follow the SMILES beside them. Groups on a side chain read outwards from the residue. *: point of attachment. C18 diacid = O=C(O)CCCCCCCCCCCCCCCCC(=O)*; γGlu = O=C(O)[C@H](CCC(=O)[*:2])N[*:1]; εLys = N[C@@H](CCCCN[*:1])C(=O)[*:2]; AEEA = NCCOCCOCC(=O)O; Aib = CC(C)(N)C(=O)O

One data set has as its target T1, human GIP receptor (Homo sapiens, UniProt P48546).
T1 construct: expressed in transfected cells; host or cells: BHK (parent line BHKTS13), clone BHK CRE luc2P hGIPR
T1 sequence (P48546 22-466): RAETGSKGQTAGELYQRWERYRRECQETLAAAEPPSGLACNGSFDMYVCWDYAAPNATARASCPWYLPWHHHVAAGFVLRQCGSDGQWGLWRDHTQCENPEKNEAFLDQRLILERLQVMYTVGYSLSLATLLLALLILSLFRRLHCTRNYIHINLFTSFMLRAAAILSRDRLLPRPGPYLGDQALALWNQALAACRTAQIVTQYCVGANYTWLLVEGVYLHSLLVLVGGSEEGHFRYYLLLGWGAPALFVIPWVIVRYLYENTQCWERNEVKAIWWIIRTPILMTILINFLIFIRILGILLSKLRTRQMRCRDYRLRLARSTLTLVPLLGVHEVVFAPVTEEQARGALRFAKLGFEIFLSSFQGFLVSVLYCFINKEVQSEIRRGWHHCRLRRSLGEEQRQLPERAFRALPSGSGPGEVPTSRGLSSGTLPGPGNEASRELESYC
Kind of data set: In vitro functional potency, CRE luciferase reporter, whole BHK cells (hGIPR). The class given is cell-based. The note with it: BHK CRE luc2P hGIPR cells. An outline of the steps:
(§1)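 Potencies are replicate means (n≥2) from non-linear log(agonist) vs response fits of CRE-driven luminescence. Cells were overnight-plated BHK CRE luc2P lines transfected with human GIPR or GLP-1R, 5000/well.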

The nature of data set [1]: Pharmacokinetic study in dogs after oral dosing of tablets with SNAC. The class given is in vivo, Beagle dogs. The note with it: dog, in vivo, po; for Tmax / half-life: male, Beagle. An outline of the steps:
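The tablets held 3-4 mg compound plus 100-300 mg SNAC and were given to fasted male beagles (6-8 per group); non-compartmental PK per animal.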

The next data set deals with human GLP-1 receptor (Homo sapiens, UniProt P43220). Kind of data set: In vitro functional potency, CRE luciferase reporter, whole BHK cells (hGLP-1R). The conditions noted are these: BHK CRE luc2P hGLP-1R cells. Set-up: expressed in transfected cells; host or cells: BHK (parent line BHKTS13), clone BHK CRE luc2P hGLP-1R. The data set is classed as cell-based. The gist of the method:
as §1

Where [2] appears, read: 0% HSA, read-out: hGIPR, CRE Luc 0% HSA EC50.
Setting [3] is: hGIPR, CRE Luc 1% HSA EC50, 1% HSA.
Where [4] appears, read: 0% HSA, read-out: hGLP-1R, CRE Luc 0% HSA EC50.
Setting [5] is: hGLP-1R, CRE Luc 1% HSA EC50, 1% HSA.

human GLP-1 receptor, sequence (P43220 24-463): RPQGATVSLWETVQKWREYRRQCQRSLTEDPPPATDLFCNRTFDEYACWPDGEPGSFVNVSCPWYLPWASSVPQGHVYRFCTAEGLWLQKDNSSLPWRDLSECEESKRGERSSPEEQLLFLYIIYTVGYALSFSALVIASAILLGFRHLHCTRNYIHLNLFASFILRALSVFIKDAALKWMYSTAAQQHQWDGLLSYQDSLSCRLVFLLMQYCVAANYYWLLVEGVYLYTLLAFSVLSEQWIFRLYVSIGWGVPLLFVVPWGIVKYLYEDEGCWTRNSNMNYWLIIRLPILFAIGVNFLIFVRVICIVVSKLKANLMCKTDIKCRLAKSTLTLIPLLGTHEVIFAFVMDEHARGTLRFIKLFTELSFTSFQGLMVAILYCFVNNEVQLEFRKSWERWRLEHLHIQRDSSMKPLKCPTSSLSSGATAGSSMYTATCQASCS

With `CC[C@H](C)[C@H](NC(=O)[C@H](Cc1ccccc1)NC(=O)[C@H](CCC(=O)O)NC(=O)[C@H](Cc1c[nH]cn1)NC(=O)[C@H](C)NC(=O)[C@H](C)NC(=O)[C@H](CCC(N)=O)NC(=O)[C@H](CCCCNC(=O)[C@@H](N)CCCCNC(=O)[C@@H](N)CCCCNC(=O)CC[C@H](NC(=O)CCCCCCCCCCCCCCCCC(=O)O)C(=O)O)NC(=O)[C@H](CCC(=O)O)NC(=O)[C@H](CC(C)C)NC(=O)[C@H](CC(C)C)NC(=O)[C@@H](NC(=O)[C@H](CO)NC(=O)[C@H](Cc1ccc(O)cc1)NC(=O)[C@H](CC(=O)O)NC(=O)[C@H](CO)NC(=O)[C@@H](NC(=O)[C@H](Cc1ccccc1)NC(=O)[C@@H](NC(=O)CNC(=O)[C@H](CCC(=O)O)NC(=O)C(C)(C)NC(=O)[C@@H](N)Cc1ccc(O)cc1)[C@@H](C)O)[C@@H](C)O)[C@@H](C)CC)C(=O)N[C@@H](CC(N)=O)C(=O)N[C@@H](Cc1c[nH]c2ccccc12)C(=O)N[C@@H](CC(C)C)C(=O)N[C@@H](CC(C)C)C(=O)N[C@@H](C)C(=O)NCC(=O)NCC(=O)N1CCC[C@H]1C(=O)N[C@@H](CO)C(=O)N[C@@H](CO)C(=O)NCC(=O)N[C@@H](C)C(=O)N1CCC[C@H]1C(=O)N1CCC[C@H]1C(=O)N1CCC[C@H]1C(=O)N[C@@H](CO)C(=O)O` [Compound 26] (H-Y[Aib]EGTFTSDYSILLEK([εLys-εLys-γGlu-C18 diacid])QAAHEFINWLLAGGPSSGAPPPS-OH), the EC50 at human GIP receptor (setting [2]) turned out to be 4.9 pM. The same compound gave an EC50 on human GIP receptor (setting [3]) of 153 pM. In data set [1], the AUC/Dose is 27.4* kg * h/L, the Cmax/Dose was 0.49* kg/L, the Tmax amounted to 1.2 h and the half-life is 70 h. Moreover, the concentration for a half-maximal effect (EC50) at human GLP-1 receptor (setting [4]) worked out at 7.4 pM. Also, the EC50 on human GLP-1 receptor (setting [5]) was 595 pM.
With `CC[C@H](C)[C@H](NC(=O)[C@H](Cc1ccccc1)NC(=O)[C@H](CCC(=O)O)NC(=O)[C@H](CCCNC(=N)N)NC(=O)[C@H](C)NC(=O)[C@H](C)NC(=O)[C@H](CCC(N)=O)NC(=O)[C@H](CCCCNC(=O)COCCOCCNC(=O)COCCOCCNC(=O)CC[C@H](NC(=O)CCCCCCCCCCCCCCCCC(=O)O)C(=O)O)NC(=O)[C@H](CCC(=O)O)NC(=O)[C@H](CC(C)C)NC(=O)[C@H](CC(C)C)NC(=O)[C@@H](NC(=O)[C@H](CO)NC(=O)[C@H](Cc1ccc(O)cc1)NC(=O)[C@H](CC(=O)O)NC(=O)[C@H](CO)NC(=O)[C@@H](NC(=O)[C@H](Cc1ccccc1)NC(=O)[C@@H](NC(=O)CNC(=O)[C@H](CCC(=O)O)NC(=O)C(C)(C)NC(=O)[C@@H](N)Cc1ccc(O)cc1)[C@@H](C)O)[C@@H](C)O)[C@@H](C)CC)C(=O)N[C@@H](CCC(=O)O)C(=O)N[C@@H](Cc1c[nH]c2ccccc12)C(=O)N[C@@H](CC(C)C)C(=O)N[C@@H](CC(C)C)C(=O)N[C@@H](C)C(=O)NCC(=O)NCC(=O)N1CCC[C@H]1C(=O)N[C@@H](CO)C(=O)N[C@@H](CO)C(=O)NCC(=O)N[C@@H](C)C(=O)N1CCC[C@H]1C(=O)N1CCC[C@H]1C(=O)N1CCC[C@H]1C(=O)N[C@@H](CO)C(=O)O` [Compound 32] (H-Y[Aib]EGTFTSDYSILLEK([AEEA-AEEA-γGlu-C18 diacid])QAAREFIEWLLAGGPSSGAPPPS-OH), the EC50 was 7.1 pM on human GIP receptor (setting [2]), 679 pM at human GIP receptor (setting [3]), 5 pM on human GLP-1 receptor (setting [4]) and 982 pM on human GLP-1 receptor (setting [5]). In addition, the AUC/Dose in data set [1] was 25.3* kg * h/L. Besides, the Cmax/Dose in data set [1] was 0.45* kg/L. Further, the Tmax in data set [1] is 1.8 h. The half-life in data set [1] was 80 h.
